Experimental data as given in article PMC3139112 (Journal of molecular biology, 2011).

What follows are sequences tested against A3G (APOBEC3G) (Homo sapiens, UniProt Q9HC16). Settings: 1 μM peptide (Fig. 3B).
A3G (APOBEC3G), sequence (Q9HC16 whole entry): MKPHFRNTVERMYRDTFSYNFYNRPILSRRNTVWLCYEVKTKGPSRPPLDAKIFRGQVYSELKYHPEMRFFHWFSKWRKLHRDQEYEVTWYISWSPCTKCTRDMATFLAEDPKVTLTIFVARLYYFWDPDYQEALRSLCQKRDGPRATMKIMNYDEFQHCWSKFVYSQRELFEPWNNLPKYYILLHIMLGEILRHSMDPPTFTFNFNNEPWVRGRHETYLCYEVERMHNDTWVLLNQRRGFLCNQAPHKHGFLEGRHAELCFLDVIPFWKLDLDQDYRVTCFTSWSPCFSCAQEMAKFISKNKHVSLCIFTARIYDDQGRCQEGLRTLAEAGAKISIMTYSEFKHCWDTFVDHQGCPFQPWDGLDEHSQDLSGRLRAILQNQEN
Type: biochemical
DCFSESAIRNAILGH [Vif113-127] was tested, and the “inhibition of A3G deaminase activity (peptide screen)” value (“inhibition of A3G deaminase activity” for short) was “inhibited the A3G deaminase activity”. For DLADQLIHLYYFDCF [Vif101-115], the “inhibition of A3G deaminase activity” value was “inhibited the A3G deaminase activity”. With IVWQVDRMRIRTWKS [Vif9-23] the “inhibition of A3G deaminase activity” value was “inhibited the A3G deaminase activity”. In the case of GWFYRHHYESTHPRI [Vif37-51], the “inhibition of A3G deaminase activity” value is reported as “inhibited the A3G deaminase activity”.
